Results taken from patent publication US20090298820A1, “3-SUBSTITUTED-1H-PYRROLO[2,3-B]PYRIDINE AND 3-SUBSTITUTED-1H-PYRROLO[3,2-B]PYRIDINE COMPOUNDS, THEIR USE AS MTOR KINASE AND PI3 KINASE INHIBITORS, AND THEIR SYNTHESES” (Wyeth, priority 2008, published 2009).

Tests used:
[1] = biological target: mTOR (Homo sapiens, UniProt P42345); test: mTOR enzyme assay (DELFIA format, His6-S6K substrate); format: biochemical; settings: read-out: mTOR Kinase Median IC50
[2] = biological target: PI3Kγ (Homo sapiens, UniProt P48736); test: PI3K-gamma fluorescence polarization assay; format: biochemical; settings: read-out: PI3Kγ Median IC50
Chain of PI3Kγ (P48736 whole entry, species assumed): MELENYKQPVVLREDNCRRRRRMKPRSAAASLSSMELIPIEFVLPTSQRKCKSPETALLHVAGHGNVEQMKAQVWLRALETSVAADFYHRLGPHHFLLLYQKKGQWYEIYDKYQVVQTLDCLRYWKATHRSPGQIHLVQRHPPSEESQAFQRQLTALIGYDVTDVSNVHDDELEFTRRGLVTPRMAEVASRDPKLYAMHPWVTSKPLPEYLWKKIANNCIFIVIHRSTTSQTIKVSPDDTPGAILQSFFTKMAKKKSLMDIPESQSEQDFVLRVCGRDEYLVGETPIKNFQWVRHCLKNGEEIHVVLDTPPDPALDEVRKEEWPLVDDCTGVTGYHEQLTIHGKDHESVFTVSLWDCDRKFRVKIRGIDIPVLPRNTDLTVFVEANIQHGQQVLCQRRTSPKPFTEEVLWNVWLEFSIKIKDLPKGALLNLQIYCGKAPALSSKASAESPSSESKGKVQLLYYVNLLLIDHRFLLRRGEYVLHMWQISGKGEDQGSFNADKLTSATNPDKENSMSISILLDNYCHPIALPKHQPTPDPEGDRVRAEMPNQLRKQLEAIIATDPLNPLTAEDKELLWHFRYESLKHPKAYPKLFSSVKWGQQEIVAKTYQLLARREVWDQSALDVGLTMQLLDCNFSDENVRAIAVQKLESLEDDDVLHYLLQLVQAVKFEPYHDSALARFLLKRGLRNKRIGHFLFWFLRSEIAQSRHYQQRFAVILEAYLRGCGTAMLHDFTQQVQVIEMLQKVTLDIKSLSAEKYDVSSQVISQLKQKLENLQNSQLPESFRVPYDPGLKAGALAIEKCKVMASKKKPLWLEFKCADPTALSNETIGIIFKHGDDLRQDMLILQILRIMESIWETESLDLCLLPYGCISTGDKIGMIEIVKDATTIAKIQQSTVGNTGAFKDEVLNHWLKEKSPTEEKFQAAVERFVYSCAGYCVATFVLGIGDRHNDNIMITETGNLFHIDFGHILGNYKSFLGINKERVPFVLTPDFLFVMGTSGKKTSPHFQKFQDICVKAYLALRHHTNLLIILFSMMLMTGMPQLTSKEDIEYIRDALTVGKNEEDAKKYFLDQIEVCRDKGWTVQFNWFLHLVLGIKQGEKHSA

[3] = biological target: PI3Kα (Homo sapiens, UniProt P42336); test: PI3K-alpha fluorescence polarization assay; format: biochemical; settings: read-out: PI3Kα Median IC50
Chain of PI3Kα (P42336 whole entry, species assumed): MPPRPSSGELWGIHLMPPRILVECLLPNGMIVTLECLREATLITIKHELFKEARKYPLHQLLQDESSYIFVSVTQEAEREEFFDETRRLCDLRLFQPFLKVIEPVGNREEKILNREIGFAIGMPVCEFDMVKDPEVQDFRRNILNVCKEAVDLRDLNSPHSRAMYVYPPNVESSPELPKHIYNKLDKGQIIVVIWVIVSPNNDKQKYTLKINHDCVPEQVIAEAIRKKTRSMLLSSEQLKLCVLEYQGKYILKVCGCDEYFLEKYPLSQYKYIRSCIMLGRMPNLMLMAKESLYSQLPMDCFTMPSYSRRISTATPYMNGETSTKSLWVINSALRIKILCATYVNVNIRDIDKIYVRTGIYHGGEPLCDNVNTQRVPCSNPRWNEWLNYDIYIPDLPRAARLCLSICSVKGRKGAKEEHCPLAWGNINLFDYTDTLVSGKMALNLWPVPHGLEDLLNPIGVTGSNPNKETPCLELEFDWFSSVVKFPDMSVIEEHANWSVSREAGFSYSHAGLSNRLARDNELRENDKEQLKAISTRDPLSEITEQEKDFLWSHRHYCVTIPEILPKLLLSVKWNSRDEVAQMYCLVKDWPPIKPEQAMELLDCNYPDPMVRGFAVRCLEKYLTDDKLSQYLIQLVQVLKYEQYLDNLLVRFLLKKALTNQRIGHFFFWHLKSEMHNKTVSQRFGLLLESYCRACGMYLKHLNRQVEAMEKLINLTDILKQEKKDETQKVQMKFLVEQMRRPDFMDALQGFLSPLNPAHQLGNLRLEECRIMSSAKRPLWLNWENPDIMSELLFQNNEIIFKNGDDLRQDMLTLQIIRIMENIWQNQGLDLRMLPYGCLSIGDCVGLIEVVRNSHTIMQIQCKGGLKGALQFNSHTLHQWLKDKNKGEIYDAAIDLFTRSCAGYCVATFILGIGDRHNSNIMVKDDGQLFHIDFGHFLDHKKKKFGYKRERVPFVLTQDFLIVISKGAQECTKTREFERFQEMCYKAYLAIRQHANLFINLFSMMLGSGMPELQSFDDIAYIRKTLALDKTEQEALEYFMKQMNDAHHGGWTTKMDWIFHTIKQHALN
Chain of PI3Kα (P27986 whole entry partner, species assumed): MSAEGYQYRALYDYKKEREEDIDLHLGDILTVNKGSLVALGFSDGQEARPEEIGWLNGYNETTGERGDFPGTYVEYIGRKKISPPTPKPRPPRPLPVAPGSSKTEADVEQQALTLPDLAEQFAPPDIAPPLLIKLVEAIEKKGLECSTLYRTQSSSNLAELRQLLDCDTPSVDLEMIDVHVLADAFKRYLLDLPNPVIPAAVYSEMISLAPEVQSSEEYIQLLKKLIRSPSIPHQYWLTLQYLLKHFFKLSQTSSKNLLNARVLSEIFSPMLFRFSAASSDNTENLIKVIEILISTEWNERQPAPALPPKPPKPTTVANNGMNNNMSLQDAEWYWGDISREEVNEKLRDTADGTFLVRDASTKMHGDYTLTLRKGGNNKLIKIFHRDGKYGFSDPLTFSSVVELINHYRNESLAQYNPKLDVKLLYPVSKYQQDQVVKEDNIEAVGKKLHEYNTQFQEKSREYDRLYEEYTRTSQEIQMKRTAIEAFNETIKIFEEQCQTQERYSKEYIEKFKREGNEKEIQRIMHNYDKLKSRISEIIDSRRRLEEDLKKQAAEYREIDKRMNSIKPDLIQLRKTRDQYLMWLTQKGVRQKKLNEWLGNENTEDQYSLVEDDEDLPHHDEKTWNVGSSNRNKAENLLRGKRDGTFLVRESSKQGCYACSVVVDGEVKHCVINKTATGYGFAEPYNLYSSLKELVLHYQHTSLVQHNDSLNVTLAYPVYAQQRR

| Compound | IC50 [1] | IC50 [2] | melting point | IC50 [3] |
| --- | --- | --- | --- | --- |
| Cn1cc(/C=C2\Oc3ccc(NC(=O)Nc4ccncc4)cc3C2=O)c2c(N3CC4CCC(C3)O4)ccnc21 [Compound 198, 1-[(2Z)-2-{[1-methyl-4-(8-oxa-3-azabicyclo[3.2.1]oct-3-yl)-1H-pyrrolo[2,3-b]pyridin-3-yl]methylidene}-3-oxo-2,3-dihydro-1-benzofuran-5-yl]-3-pyridin-4-ylurea] | 19.5 nM | 249 nM | 257 to 259 °C | 293 nM |
| Cn1cc(/C=C2\Oc3cccc(O)c3C2=O)c2c(N3CC4(C)CC3CC(C)(C)C4)ccnc21 (stereo not shown) [Compound 105, (2Z)-4-hydroxy-2-{[1-methyl-4-(1,3,3-trimethyl-6-azabicyclo[3.2.1]oct-6-yl)-1H-pyrrolo[2,3-b]pyridin-3-yl]methylene}-1-benzofuran-3(2H)-one] | 69 nM | > 10000 nM | 220 to 223 °C | > 10000 nM |
| Cn1cc(/C=C2\Oc3cccc(O)c3C2=O)c2c(-c3ccc(C(=O)N4CC5CCC(C4)O5)cc3)ccnc21 [Compound 144, (2Z)-4-hydroxy-2-({1-methyl-4-[4-(8-oxa-3-azabicyclo[3.2.1]oct-3-ylcarbonyl)phenyl]-1H-pyrrolo[2,3-b]pyridin-3-yl}methylidene)-1-benzofuran-3(2H)-one] | 0.6 nM | 77 nM | 296 to 298 °C | 57 nM |
| CC(=O)c1ccc(-c2ccnc3c2c(/C=C2\Oc4cccc(O)c4C2=O)cn3C)cc1 [Compound 134, (2Z)-2-{[4-(4-acetylphenyl)-1-methyl-1H-pyrrolo[2,3-b]pyridin-3-yl]methylene}-4-hydroxy-1-benzofuran-3(2H)-one] | 3.8 nM | 89 nM | 250 to 253 °C | 55 nM |
| Cn1cc(/C=C2\Oc3ccc(NC(=O)Nc4cccnc4)cc3C2=O)c2c(N3CC4CCC3CO4)ccnc21 (stereo not shown) [Compound 277, 1-[(2Z)-2-{[1-methyl-4-(2-oxa-5-azabicyclo[2.2.2]oct-5-yl)-1H-pyrrolo[2,3-b]pyridin-3-yl]methylidene}-3-oxo-2,3-dihydro-1-benzofuran-5-yl]-3-pyridin-3-ylurea] | 7.5 nM | 2590 nM | 227 to 235 °C | 296 nM |
| Cn1cc(/C=C2\Oc3cc(O)cc(O)c3C2=O)c2c(N3CCCC3)ccnc21 [Compound 46, (2Z)-4,6-dihydroxy-2-[(1-methyl-4-pyrrolidin-1-yl-1H-pyrrolo[2,3-b]pyridin-3-yl)methylene]-1-benzofuran-3(2H)-one] | 1.6 nM | 240 nM | 312 to 315 °C | 59 nM |
| Cn1cc(/C=C2\Oc3ccc(C(=O)O)cc3C2=O)c2c(-c3ccccc3)ccnc21 [Compound 176, (2Z)-2-[(1-methyl-4-phenyl-1H-pyrrolo[2,3-b]pyridin-3-yl)methylidene]-3-oxo-2,3-dihydro-1-benzofuran-5-carboxylic acid] | 445 nM | > 10000 nM | 329 to 342 °C | > 10000 nM |
| Cn1cc(/C=C2\Oc3cc(O)cc(O)c3C2=O)c2c(C#Cc3ccccc3)ccnc21 [Compound 39, (2Z)-4,6-dihydroxy-2-{[1-methyl-4-(phenylethynyl)-1H-pyrrolo[2,3-b]pyridin-3-yl]methylene}-1-benzofuran-3(2H)-one] | 5.7 nM | 104 nM | 308 to 310 °C | 106 nM |
| Cn1cc(/C=C2\Oc3cccc(NC(=O)C(C)(C)C)c3C2=O)c2c(-c3ccccc3)ccnc21 [Compound 68, 2,2-dimethyl-N-{(2Z)-2-[(1-methyl-4-phenyl-1H-pyrrolo[2,3-b]pyridin-3-yl)methylene]-3-oxo-2,3-dihydro-1-benzofuran-4-yl}propanamide] | > 4000 nM | 1800 nM | 251 to 253 °C | > 10000 nM |
| CN(C)C(=O)c1ccc(-c2ccnc3c2c(/C=C2\Oc4cccc(O)c4C2=O)cn3C)cc1 [Compound 111, 4-{3-[(Z)-(4-hydroxy-3-oxo-1-benzofuran-2(3H)-ylidene)methyl]-1-methyl-1H-pyrrolo[2,3-b]pyridin-4-yl}-N,N-dimethylbenzamide] | 0.5 nM | 66 nM | 212 to 218 °C | 36 nM |
| CN(C)CCCN1CCN(c2ccnc3c2c(/C=C2\Oc4cccc(O)c4C2=O)cn3C)CC1 [Compound 118, (2Z)-2-[(4-{4-[3-(dimethylamino)propyl]piperazin-1-yl}-1-methyl-1H-pyrrolo[2,3-b]pyridin-3-yl)methylene]-4-hydroxy-1-benzofuran-3(2H)-one] | 20 nM | 791 nM | 263 to 268 °C | 286 nM |
| Cn1cc(/C=C2\Oc3cccc(O)c3C2=O)c2c(N3CCC(C(=O)NCCO)CC3)ccnc21 [Compound 148, N-(2-hydroxyethyl)-1-{3-[(Z)-(4-hydroxy-3-oxo-1-benzofuran-2(3H)-ylidene)methyl]-1-methyl-1H-pyrrolo[2,3-b]pyridin-4-yl}piperidine-4-carboxamide] | 0.7 nM | 94 nM | 232 to 242 °C | 39 nM |
| Cn1cc(/C=C2\Oc3ccc(NC(=O)Nc4cccnc4)cc3C2=O)c2c(N3CCC(C(=O)Nc4ccncc4)CC3)ccnc21 [Compound 263, 1-{1-methyl-3-[(Z)-{3-oxo-5-[(pyridin-3-ylcarbamoyl)amino]-1-benzofuran-2(3H)-ylidene}methyl]-1H-pyrrolo[2,3-b]pyridin-4-yl}-N-pyridin-4-ylpiperidine-4-carboxamide] | 25 nM | 8210 nM | 230 to 235 °C (dec.) | 15500 nM |
| CN(Cc1ccccn1)C(=O)C1CCN(c2ccnc3c2c(/C=C2\Oc4ccc(NC(=O)Nc5cccnc5)cc4C2=O)cn3C)CC1 [Compound 257, N-methyl-1-{1-methyl-3-[(Z)-{3-oxo-5-[(pyridin-3-ylcarbamoyl)amino]-1-benzofuran-2(3H)-ylidene}methyl]-1H-pyrrolo[2,3-b]pyridin-4-yl}-N-(pyridin-2-ylmethyl)piperidine-4-carboxamide] | 8.4 nM | 1400 nM | 187 to 189 °C | 1570 nM |
| COCC1CN(C(=O)C2CCN(c3ccnc4c3c(/C=C3\Oc5cccc(O)c5C3=O)cn4C)CC2)CCO1 (stereo not shown) [Compound 311, (2Z)-4-hydroxy-2-{[4-(4-{[2-(methoxymethyl)morpholin-4-yl]carbonyl}piperidin-1-yl)-1-methyl-1H-pyrrolo[2,3-b]pyridin-3-yl]methylidene}-1-benzofuran-3(2H)-one] | 3.8 nM | 698 nM | 112 to 115 °C | 145 nM |
| CN(C)C(=O)Nc1ccc2c(c1)C(=O)/C(=C/c1cn(C)c3nccc(-c4ccccc4)c13)O2 [Compound 161, 1,1-dimethyl-3-{(2Z)-2-[(1-methyl-4-phenyl-1H-pyrrolo[2,3-b]pyridin-3-yl)methylidene]-3-oxo-2,3-dihydro-1-benzofuran-5-yl}urea] | 397 nM | > 10000 nM | 275 to 280 °C | 5500 nM |
| Cn1cc(/C=C2\Oc3cccc(O)c3C2=O)c2c(-c3cccc(C(=O)N4CCCC4)c3)ccnc21 [Compound 103, (2Z)-4-hydroxy-2-({1-methyl-4-[3-(pyrrolidin-1-ylcarbonyl)phenyl]-1H-pyrrolo[2,3-b]pyridin-3-yl}methylene)-1-benzofuran-3(2H)-one] | 6.6 nM | 169 nM | 233 to 235 °C | 182 nM |
| Cn1cc(/C=C2\Oc3cccc(O)c3C2=O)c2c(N3CC4CC3CN4)ccnc21 (stereo not shown) [Compound 101, (2Z)-2-{[4-(2,5-diazabicyclo[2.2.1]hept-2-yl)-1-methyl-1H-pyrrolo[2,3-b]pyridin-3-yl]methylene}-4-hydroxy-1-benzofuran-3(2H)-one] | 10.8 nM | 339 nM | 325 °C | 20 nM |
| Cn1cc(/C=C2\Oc3cccc(O)c3C2=O)c2c(N3CCC(C(=O)N4CCN(CCO)CC4)CC3)ccnc21 [Compound 307, (2Z)-4-hydroxy-2-{[4-(4-{[4-(2-hydroxyethyl)piperazin-1-yl]carbonyl}piperidin-1-yl)-1-methyl-1H-pyrrolo[2,3-b]pyridin-3-yl]methylidene}-1-benzofuran-3(2H)-one] | 1.9 nM | 158 nM | 136 to 140 °C | 24 nM |
| CN(C)C(=O)C1CCN(c2ccnc3c2c(/C=C2\Oc4ccc(NC(=O)Nc5cccnc5)cc4C2=O)cn3C)CC1 [Compound 189, N,N-dimethyl-1-{1-methyl-3-[(Z)-{3-oxo-5-[(pyridin-3-ylcarbamoyl)amino]-1-benzofuran-2(3H)-ylidene}methyl]-1H-pyrrolo[2,3-b]pyridin-4-yl}piperidine-4-carboxamide] | 10.5 nM | 2040 nM | 165 to 175 °C (dec.) | 2030 nM |
| Cn1cc(/C=C2\Oc3cc(O)cc(O)c3C2=O)c2c(-c3ccc(Cl)cc3)ccnc21 [Compound 64, (2Z)-2-{[4-(4-chlorophenyl)-1-methyl-1H-pyrrolo[2,3-b]pyridin-3-yl]methylene}-4,6-dihydroxy-1-benzofuran-3(2H)-one] | 1.8 nM | 81 nM | 345 °C | 29 nM |
| Cn1cc(/C=C2\Oc3cccc(O)c3C2=O)c2c(-c3ccc(CO)nc3)ccnc21 [Compound 76, (2Z)-4-hydroxy-2-({4-[6-(hydroxymethyl)pyridin-3-yl]-1-methyl-1H-pyrrolo[2,3-b]pyridin-3-yl}methylene)-1-benzofuran-3(2H)-one] | 8.5 nM | 132 nM | 270 to 275 °C | 41 nM |
